The structures appear in SMILES notation.

By IC50 is commonly meant the concentration at which inhibition is half-maximal. The low end stands for higher potency, the high end for lower potency.

One assay relates to VCaP CRPC xenograft. Description: In vivo efficacy, VCaP CRPC mouse model. Details: species or system mice. As to conditions: YJZ5118 i.p., q.d., uprosertib p.o., 5x/week, 27 days, compared to vehicle. Here is the method:
All the animal experiments were performed under an approved animal protocol (Protocol ID: PRO00010006, PI, Arul Chinnaiyan) by the Institutional Animal Care & Use Committee of the University of Michigan. Six- to eight-week-old NSG (Jackson Laboratory) or CB17SCID female (Charles River Laboratory) mice were in a regular SPF housing room prior to cell injection. Briefly, 5 ×10^6 cells of VCaP CRPC were injected […] of NSG or CB17SCID mice, respectively. After tumor size reached approximately 200–400 mm^3, animals were subjected to drug treatment. […] Vehicle consisted of 20% PEG400, 6% Cremophor EL, and 74% PBS solution. Tumors were collected at the end of the experiment for Western blot analysis.

For the next assay, the target named is T1, CDK18/CycY (Homo sapiens, UniProt Q07002).
T1 construct: ICE Bioscience Inc. (assay service)
Kind of assay: CDK family panel, ADP-Glo. Format: biochemical. A general note: ADP-Glo turns the ADP formed in a reaction into a luminescent signal.

Another assay has as its target T2, CDK1/CycE1 (Homo sapiens, UniProt P06493).
T2 construct: ICE Bioscience Inc. (assay service)
Kind of assay: CDK family panel, ADP-Glo. The class given is biochemical.

The target of another assay is T3, CDK9/CycT1 (Homo sapiens, UniProt P50750).
T3 construct: ICE Bioscience Inc. (assay service)
Description: CDK family panel, ADP-Glo. The class given is biochemical.

Another assay has as its target T4, CDK5/p25NCK (Homo sapiens, UniProt Q00535).
T4 construct: ICE Bioscience Inc. (assay service)
Kind of assay: CDK family panel, ADP-Glo. Format: biochemical.

In assay [1] the test system is phosphorylation of RNA polymerase II at Ser2. Kind of assay: Washout experiment, RNA polymerase II Ser2 phosphorylation (immunoblot). Format: cell-based, human. The following applies: VCaP cells; YJZ5118 100 nM. The protocol: The previously reported reversible inhibitor 10 was included for comparison. VCaP cells were treated with the compounds for 6 h, after which the compounds were removed, and the cells were cultured in compound-free media for 5 days.
Generally, after incubation with the compounds for the indicated time, the tested cells were washed by cold PBS buffer (Gibco) and lysed with RIPA buffer (ThermoFisher Scientific) supplemented with cOmplete protease inhibitor cocktail tablets (Sigma-Aldrich). The cell lysate was treated with ultrasonic for 20s, following a centrifugation of 14000 rpm at 4°C for 10 min. The protein concentration was measured by BCA protein assay (DC Protein Assay, BIO-RAD). An equal amount of protein was loaded to 4–12% Bis-Tris gels and underwent SDS-PAGE electrophoresis at 120 V for 90 min. The proteins were transferred to a nitrocellulose (NC) membrane (Thermo Scientific) and the membranes were blocked in 5% milk buffer at room temperature for 1h, followed by incubating with primary antibody at the recommended dilution at 4°C for overnight. The membranes were washed by PBST for three times and incubated with anti-rabbit or anti-mouse HRP-conjugated secondary antibody for 1h at room temperature, after which the membranes were imaged by Odyssey CLx Imager (LiCOR Biosciences).
A general note: Immunoblotting shows a protein as a band on a membrane.

T1 sequence (Q07002 whole entry, species assumed): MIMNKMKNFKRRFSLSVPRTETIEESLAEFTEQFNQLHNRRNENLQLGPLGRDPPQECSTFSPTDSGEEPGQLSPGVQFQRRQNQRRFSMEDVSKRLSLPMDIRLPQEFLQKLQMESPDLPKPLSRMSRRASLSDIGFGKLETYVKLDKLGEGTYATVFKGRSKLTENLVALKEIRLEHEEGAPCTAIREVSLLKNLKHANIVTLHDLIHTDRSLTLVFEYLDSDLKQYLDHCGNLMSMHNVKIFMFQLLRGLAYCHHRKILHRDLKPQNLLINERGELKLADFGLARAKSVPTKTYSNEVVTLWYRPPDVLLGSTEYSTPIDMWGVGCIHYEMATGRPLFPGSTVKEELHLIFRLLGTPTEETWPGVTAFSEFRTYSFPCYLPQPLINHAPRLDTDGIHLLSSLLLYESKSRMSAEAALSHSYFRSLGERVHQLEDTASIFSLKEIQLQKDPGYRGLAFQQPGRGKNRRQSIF
T1 sequence (Q8ND76 whole entry partner, species assumed): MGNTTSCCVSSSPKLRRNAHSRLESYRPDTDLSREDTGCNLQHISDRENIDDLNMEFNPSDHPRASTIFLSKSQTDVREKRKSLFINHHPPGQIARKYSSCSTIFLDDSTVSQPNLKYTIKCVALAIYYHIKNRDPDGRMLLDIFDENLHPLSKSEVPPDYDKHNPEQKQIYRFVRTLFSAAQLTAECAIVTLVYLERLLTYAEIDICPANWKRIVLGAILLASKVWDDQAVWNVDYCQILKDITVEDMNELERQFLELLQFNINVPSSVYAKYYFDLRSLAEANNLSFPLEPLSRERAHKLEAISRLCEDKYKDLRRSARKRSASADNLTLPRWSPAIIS
T4 sequence (Q00535 whole entry): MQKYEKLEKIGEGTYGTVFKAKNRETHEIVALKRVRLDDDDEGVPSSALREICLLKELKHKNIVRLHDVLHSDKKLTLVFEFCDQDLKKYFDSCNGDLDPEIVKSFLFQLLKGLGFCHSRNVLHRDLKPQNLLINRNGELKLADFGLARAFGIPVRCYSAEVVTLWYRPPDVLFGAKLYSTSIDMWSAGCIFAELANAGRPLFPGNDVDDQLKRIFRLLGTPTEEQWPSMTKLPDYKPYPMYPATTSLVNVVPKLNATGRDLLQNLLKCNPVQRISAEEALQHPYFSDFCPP
T4 sequence (Q15078 99-307 partner): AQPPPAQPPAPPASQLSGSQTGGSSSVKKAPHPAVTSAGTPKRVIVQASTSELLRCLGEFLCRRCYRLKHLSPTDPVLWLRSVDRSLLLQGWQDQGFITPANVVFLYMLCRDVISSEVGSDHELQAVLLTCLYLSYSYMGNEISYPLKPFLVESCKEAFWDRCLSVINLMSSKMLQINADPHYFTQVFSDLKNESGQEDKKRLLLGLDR
T2 sequence (P06493 whole entry, species assumed): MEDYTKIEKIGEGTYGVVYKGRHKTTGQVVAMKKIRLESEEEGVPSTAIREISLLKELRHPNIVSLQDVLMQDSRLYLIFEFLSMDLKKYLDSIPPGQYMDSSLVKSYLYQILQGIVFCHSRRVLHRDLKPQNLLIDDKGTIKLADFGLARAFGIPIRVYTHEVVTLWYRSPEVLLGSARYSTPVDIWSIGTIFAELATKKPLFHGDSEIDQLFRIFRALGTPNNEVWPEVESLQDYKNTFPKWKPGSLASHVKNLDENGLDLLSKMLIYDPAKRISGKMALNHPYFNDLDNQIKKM
T2 sequence (P24864 whole entry partner, species assumed): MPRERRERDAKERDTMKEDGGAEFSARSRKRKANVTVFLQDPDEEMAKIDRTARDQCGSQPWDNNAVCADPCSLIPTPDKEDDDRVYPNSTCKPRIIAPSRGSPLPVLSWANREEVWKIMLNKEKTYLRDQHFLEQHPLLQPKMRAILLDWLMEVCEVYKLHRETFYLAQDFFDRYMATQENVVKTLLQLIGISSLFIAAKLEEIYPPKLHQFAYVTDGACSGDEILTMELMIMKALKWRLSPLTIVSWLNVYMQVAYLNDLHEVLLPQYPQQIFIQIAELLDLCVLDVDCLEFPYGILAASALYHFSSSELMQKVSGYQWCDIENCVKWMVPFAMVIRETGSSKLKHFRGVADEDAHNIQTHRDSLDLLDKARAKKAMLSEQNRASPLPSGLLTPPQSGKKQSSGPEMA
T3 sequence (P50750 whole entry, species assumed): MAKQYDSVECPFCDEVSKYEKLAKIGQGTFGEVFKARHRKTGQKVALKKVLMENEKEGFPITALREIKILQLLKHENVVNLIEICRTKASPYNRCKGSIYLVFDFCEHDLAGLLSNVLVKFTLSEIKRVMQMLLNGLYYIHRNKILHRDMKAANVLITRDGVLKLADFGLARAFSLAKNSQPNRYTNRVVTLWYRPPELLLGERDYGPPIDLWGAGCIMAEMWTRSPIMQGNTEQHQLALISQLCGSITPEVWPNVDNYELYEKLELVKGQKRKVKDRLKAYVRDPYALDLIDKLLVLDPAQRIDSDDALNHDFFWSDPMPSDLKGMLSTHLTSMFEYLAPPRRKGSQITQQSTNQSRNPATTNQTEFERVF
T3 sequence (O60563 whole entry partner, species assumed): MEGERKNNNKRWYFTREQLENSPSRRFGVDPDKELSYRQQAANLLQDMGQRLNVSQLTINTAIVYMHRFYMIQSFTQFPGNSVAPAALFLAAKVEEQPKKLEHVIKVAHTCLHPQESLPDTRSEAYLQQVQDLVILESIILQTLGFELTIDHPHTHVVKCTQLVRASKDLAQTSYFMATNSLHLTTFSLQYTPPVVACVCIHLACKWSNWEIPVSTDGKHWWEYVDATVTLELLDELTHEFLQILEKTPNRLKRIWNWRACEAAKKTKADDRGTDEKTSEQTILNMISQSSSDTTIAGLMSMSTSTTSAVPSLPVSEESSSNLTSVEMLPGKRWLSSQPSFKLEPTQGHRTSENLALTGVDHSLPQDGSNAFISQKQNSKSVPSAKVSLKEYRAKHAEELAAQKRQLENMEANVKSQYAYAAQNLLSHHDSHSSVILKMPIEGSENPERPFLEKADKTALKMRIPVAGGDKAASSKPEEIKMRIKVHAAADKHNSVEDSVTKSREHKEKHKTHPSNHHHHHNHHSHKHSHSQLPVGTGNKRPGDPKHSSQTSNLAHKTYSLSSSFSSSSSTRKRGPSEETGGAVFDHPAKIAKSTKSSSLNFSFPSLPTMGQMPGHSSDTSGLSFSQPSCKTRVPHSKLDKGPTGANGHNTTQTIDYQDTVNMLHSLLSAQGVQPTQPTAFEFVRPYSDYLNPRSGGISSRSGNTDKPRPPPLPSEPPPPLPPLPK
Description for CDK1/CycE1: (§1) All the kinase activity were performed using an ADP-Glo kinase assay by ICE Bioscience Inc. (Beijing, China).
Description for CDK18/CycY: All the kinase activity were performed using an ADP-Glo kinase assay by ICE Bioscience Inc. (Beijing, China). Kinome selectivity profiles (KINOMEscan profiling) and Kd detection were performed by Eurofins DiscoveryX Corporation (San Diego, CA, USA).
Description for CDK5/p25NCK: as §1
Description for CDK9/CycT1: as §1

Consider `C=CC(=O)Nc1cc(N(C(=O)NCc2ccccc2)[C@H]2CC[C@H](Nc3ccc(C#N)cn3)CC2)ccc1N1CCC(N(C)C)CC1` [YJZ5118, N-(5-(3-benzyl-1-((1r,4r)-4-((5-cyanopyridin-2-yl)amino)cyclohexyl)ureido)-2-(4-(dimethylamino)piperidin-1-yl)phenyl)acrylamide], for which, in the assay with VCaP CRPC xenograft, the tumor growth entry is reported as “significant reduction in tumor growth”. Further, the IC50 is greater than 10000 nM against CDK18/CycY, greater than 10000 nM at CDK1/CycE1, 4910 nM at CDK9/CycT1 and greater than 10000 nM at CDK5/p25NCK. The “RNA polymerase II Ser2 phosphorylation after washout” value in assay [1] was “complete loss of phosphorylation observed at 15 h after washout”.

Source of the values: publication PMC12147761 (Journal of medicinal chemistry, 2025).
